Assay results: patent publication US12195419B2, “Glutamine antagonists and uses thereof” (The Johns Hopkins University, priority 2017, dated 2025)
Read-outs that look alike come from different tables or passages of the source.

Legend:
P493B lymphoma cells [1] = test: Human tumor cell to plasma partitioning assay, single time-point (compounds 1, 7, 12, 16 and DON); assay type: cell-based; conditions: 20 μM; for DON release in plasma: human plasma containing P493B cells, 1 h incubation
Protocol: Compounds 1, 7, 12 and 16 were evaluated for their ability to be taken up in tumor cells and cleaved to give DON. The experimental conditions are described below.
(§1) Tumor cell to plasma partitioning assay was conducted in P493B lymphoma cells (obtained from Dr. Chi Dang, Abramson Cancer Center, University of Pennsylvania, Philadelphia, PA; (REF, Nature 458, 762-765, 2009). In brief, cells were grown in 150 cm^2 cell T-flasks (Falcon™, USA) with RPMI 1640, 1× L-glutamine medium (Corning™ Cellgro™, USA) supplemented with 10% (v/v) FBS (Gibco™, USA), and 1% streptomycin and gentamycin (Gibco™, USA). All cells were incubated at 37° C., in a humidified atmosphere with 5% CO2. The cell confluency was monitored visually using an Axiovert 25 optical microscope equipped with an 3CCD digital camera. Upon confluency, cell suspension was collected and centrifuged at 1000 rpm for 5 min at 25° C. to collect the cell pellet. The supernatant media was decanted, the cell pellet was re-suspended in 20 mL of DPBS (Gibco™, USA), and maintained at 37° C. in order to remove the media traces.
The cell count was determined using an automated cell counter (Bio-Rad, USA) following a 1:1 dilution of an aliquot with 0.4% trypan blue solution (Bio-Rad, USA). The cell suspension in DPBS was centrifuged at 1000 rpm for 5 min at 25° C. to collect the cell pellet. The supernatant DPBS was decanted and the cell pellets were resuspended in human plasma (Innovative Research, USA) to obtain a cell density of 10 million cells/mL of plasma. For analysis of cell partitioning cell-plasma suspension, 1 ml, was pre-incubated at 37° C. for 5 min, following which, compounds were spiked for a final concentration of 20 μM and re-incubated at 37° C. for 1 h. Following incubation, the cell suspension was centrifuged at 10000 rpm for 10 min at 4° C. Supernatant plasma obtained after centrifugation was collected and stored at −80° C. for intact compound and DON analysis. The cell pellet was washed once with ice cold DPBS, followed by centrifugation and stored at −80° C. for intact prodrug and/or DON analysis by LC-MS/MS.
For quantification of DON and intact compound, cell pellets were weighed and suspended in 50 μL of water. To the cell suspension, ice cold methanol with internal standards (losartan: 0.5 μM and glutamate D5: 10 μM) were added in a 5:1 ratio of solvent to cell suspension. The cell samples were vortexed, mixed for 30 sec and centrifuged at 10,000 rpm for 10 min at 4° C. For intact compound bioanalysis, 50 μL of the supernatant obtained after centrifugation was diluted with 50 μL water and transferred to a 250 μL polypropylene vial sealed with a Teflon cap. DON bioanalysis was performed following dabsyl chloride derivatization method with minor modifications (see, Rais et al., 2016; Nedelcovych et al., 2017). Briefly, 200 μL of the supernatant was collected in a separate tube and dried at 45° C. under vacuum for 1 h. To each tube, 50 μL of 0.2 M sodium bicarbonate buffer (pH 9.0) and 100 μL dabsyl chloride stock was added. […] The standard curve for DON quantification in the cell pellet was prepared using naïve P493B cells diluted with water to the equivalent ratio as that of sample.
Briefly, DON was analyzed on a Dionex ultra high-performance system consisting of an analytical pump, and an autosampler coupled with Q Exactive Focus orbitrap mass spectrometer (Thermo Fisher Scientific Inc., Waltham MA). […]

[2] = Dog pharmacokinetic study of compound #2 (IV infusion or SC); assay type: in vivo; conditions: intact #2 in plasma, 0.2 mg/kg DON equivalent, male beagle dog; for AUC(0-t): read-out: Intact compound AUC0-t
Protocol: The dog pharmacokinetic study was conducted in accordance with the guidelines recommended in Guide for the Care and Use of Laboratory Animals and was approved by the Absorption Systems (San Diego, CA) Institutional Animal Care and Use Committee. Compound #2 was administered to male beagle dogs (n=1/group) as a bolus subcutaneous dose or infused over 1 h at a dose of 0.2 mg/kg DON equivalent. Blood samples were collected from the jugular vein (˜1 mL) via direct venipuncture at 0 min, 5 min (IV only), 15 min, 1 h, 2 h, 4 h, 8 h, and 24 h, post dose, placed into sodium heparin tubes, and maintained on wet ice until processing. Blood samples were centrifuged at a temperature of 4° C., at 3000× g, for 5 minutes. Plasma was collected in tubes and flash frozen. Samples were stored in a freezer set to maintain −60° C. to −80° C. until bioanalysis as described previously (see, Rais et al., 2016; Nedelcovych et al., 2017).

[3] = Compound 7 dog pharmacokinetic study (SC); assay type: in vivo; conditions: beagle dog plasma, actual dose 2.6 mg/kg (DON eq. 0.8 mg/kg)
Text: Compound 7 was administrated to a beagle dog subcutaneously. FIG. 4C is a line graph showing its plasma pharmacokinetics in the dog.

P493B lymphoma cells [4] = test: Cell proliferation assay (CellTiter 96 AQueous); assay type: cell-based, human; conditions: for EC50: Homo sapiens, 72 h incubation, read-out: EC50 (cell viability)
Protocol: The cell proliferation assay was performed using the CellTiter 96® AQueous one solution cell proliferation reagent following the manufacturers' instruction (Promega, USA). Briefly, P493B lymphoma cells were plated in 96 well plates at a density of 20,000 cells/well in a final volume of 100 μL growth media. Test compound stocks were made in DMSO and were added to cells in a 1:10 serial dilution with a final concentration of 0.2% DMSO. Cells were allowed to proliferate for 72 h in the presence of test compounds. Thereafter, 20 μL of CellTiter 96™ AQeous (Promega #3580) was added per well and incubated for 2 h. Absorbance was measured at 490 nm.
DON and compound 7 were incubated with P493B lymphoma cells for 72 h, and cell viability was measured.

P493B tumor cells = test: Time dependent tumor cell to plasma partitioning of compound 7; assay type: cell-based, human
Protocol: as §1
The cell count was determined using an automated cell counter (Bio-Rad, USA) following a 1:1 dilution of an aliquot with 0.4% trypan blue solution (Bio-Rad, USA). The cell suspension in DPBS was centrifuged at 1000 rpm for 5 min at 25° C. to collect the cell pellet. The supernatant DPBS was decanted and the cell pellets were resuspended in human plasma (Innovative Research, USA) to obtain a cell density of 10 million cells/mL of plasma. […]

CC(=O)NCCCC[C@H](NC(=O)[C@H](Cc1c[nH]c2ccccc12)NC(C)=O)C(=O)N[C@@H](CCC(=O)C=[N+]=[N-])C(=O)OC(C)C (stereo in doubt) [Compound 12, Isopropyl 2-(6-acetamido-2-(2-acetamido-3-(1H-indol-3-yl)propan-amido)hexanamido)-6-diazo-5-oxohexanoate]
DON release in plasma (P493B lymphoma cells [1]): minimal DON release

CC(=O)NCCCC[C@H](NC(=O)[C@@H]1Cc2ccccc2CN1C(C)=O)C(=O)N[C@@H](CCC(=O)C=[N+]=[N-])C(=O)OC(C)C (stereo in doubt) [Compound 16, Isopropyl 2-(6-acetamido-2-(2-acetyl-1,2,3,4-tetrahydroisoquinoline-3-carboxamido)hexanamido)-6-diazo-5-oxohexanoate]
DON release in plasma (P493B lymphoma cells [1]): minimal DON release
DON release in tumor cells (tumor cell DON concentrations) (P493B lymphoma cells [1]; human plasma with 10 million P493B cells, 37° C., 1 h, compared to DON): minimal release

CC(=O)NCCCC[C@H](NC(=O)OC(C)(C)C)C(=O)N[C@@H](CCC(=O)C=[N+]=[N-])C(=O)OC(C)C [Compound 1, Isopropyl 2-(6-acetamido-2-((tert-butoxycarbonyl)amino)-hexanamido)-6-diazo-5-oxohexanoate]
DON release in plasma (P493B lymphoma cells [1]): minimal DON release

CC(=O)NCCCC[C@H](NC(=O)OCC1c2ccccc2-c2ccccc21)C(=O)N[C@@H](CCC(=O)C=[N+]=[N-])C(=O)OC(C)C [Compound 2, Isopropyl 2-(2-((((9H-fluoren-9-yl)methoxy)carbonyl)amino)-6-acet-amidohexanamido)-6-diazo-5-oxohexanoate]
Cmax ([2]; IV infusion over 1 h): 6570 nM
Tmax ([2]; IV infusion over 1 h): 0.08 h
AUC(0-t) ([2]; IV infusion over 1 h): 7.45 µM·h
Cmax ([2]; SC bolus): 470 nM
Tmax ([2]; SC bolus): 4 h
AUC(0-t) ([2]; SC bolus): 2.6 µM·h

CC(=O)NCCCC[C@H](NC(=O)C12CC3CC(CC(C3)C1)C2)C(=O)N[C@@H](CCC(=O)C=[N+]=[N-])C(=O)OC(C)C [Compound 7]
DON release in plasma (P493B lymphoma cells [1]): minimal DON release
AUC ([3]; N = 1, read-out: AUC Cpd 7): 2.1 µM·h
Cmax ([3]; N = 1, read-out: Cmax Cpd 7): 640 nM
improvement of tumor cell killing vs DON (P493B lymphoma cells [4]; 72 h, EC50 compared to DON): two-fold
EC50 (P493B lymphoma cells [4]): 5 ± 0.12 µM
intact compound observed in tumor cells (P493B tumor cells): < 1%

[N-]=[N+]=CC(=O)CC[C@H](N)C(=O)O [DON, 6-diazo-5-oxo-L-norleucine, reference compound]
EC50 (P493B lymphoma cells [4]): 10 ± 0.11 µM
